This note sets out measurements from US20170198011A1, “COMPOSITION FOR TREATING SEPSIS OR SEPTIC SHOCK COMPRISING THE PEPTIDE ORIGINATED FROM THE SMAD6” (Medpacto, Inc., priority 2011, published 2017).

For one test, the target named is T1, Pellino-1N domain (Homo sapiens, UniProt Q96FA3).
T1 construct: expressed in transfected cells; host or cells: HEK293
T1 sequence (Q96FA3 1-140 limits assumed): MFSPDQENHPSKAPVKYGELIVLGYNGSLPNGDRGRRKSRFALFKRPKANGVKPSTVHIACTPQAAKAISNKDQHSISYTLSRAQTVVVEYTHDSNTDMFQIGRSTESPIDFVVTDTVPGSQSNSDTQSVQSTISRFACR
As to the kind of experiment: Co-immunoprecipitation of Smad6 MH2 mutants with HA-tagged Pellino-1N in HEK293 cells. Format: binding. The following applies: truncated mutants of Smad6 MH2 domain. The source says:
To examine a minimum region of Smad6 that binds certainly to Pellino-1, which specifically interrupts NF-κB (κB nuclear factor kappa B) signaling, mutants were constructed by consecutively truncating the Smad6 MH2 domain, and analyzed using a co-immunoprecipitation assay.
[…] Plasmids carrying genes for different regions of Smad6 (Myc-Smad6 MH2, Myc-Smad6 346F, Myc-Smad6 371F, Myc-Smad6 385F, Myc-Smad6 464R, Myc-Smad6 441R, Myc-Smad6 410R, Myc-Smad6 385-441, Myc-Smad6 385-427, Myc-Smad6 385-418, Myc-Smad6 385-410, Myc-Smad6 400-441, Myc-Smad6 400-427, Myc-Smad6 400-418, Myc-Smad6 400-410, Myc-Smad6 422-441) were constructed by amplifying a full-length Smad6 cDNA by PCR and subcloning it into the BamHI/XhoI site of the pSC3+MT 6×Myc vector. Myc-Smad6 R429A, Myc-Smad6 P432A, Myc-Smad6 P433G, Myc-Smad6 Y435F, and Myc-Smad6 I437D were created using a QuikChange mutagenesis kit (Stratagene).
A co-immunoprecipitation assay was carried out as follows. […]

Another test relates to NF-κB. As to the kind of experiment: 5xNF-κB-Luc reporter luciferase assay in CMT-93 cells. Format: cell-based. The following applies: LPS 10 ng/ml 2 hrs. The source says: FIG. 2B is a graph showing results of the luciferase assay conducted with CMT-93 cells after transfection with a 5×NF-κB-Luc reporter plasmid plus an empty vector, a plasmid carrying Myc-Smad6 (400-441), or a plasmid carrying full-length Smad6, and
FIG. 3E is a graph showing TGF-β-induced luciferase activity in CMT-93 cells transformed with a 5×NF-κB-Luc reporter plasmid plus an empty vector or a Myc-Smad6 (422-441) plasmid;
(§1) To examine whether the small region of Smad6 MH2 domain specifically suppresses LPS-induced NF-κB signaling, a 5×NF-κB-Luc reporter plasmid and an SBE (Smad binding element)-Luc reporter plasmid were separately transfected, together with a plasmid expressing a peptide from amino acid 400 to 441 of Smad6, into a CMT-93 epithelial cell line with the aid of Effectene (Qiagen). Following treatment with LPS (10 ng/ml) or TGF-β1 (5 ng/ml) for 2 hrs, the transfected cells were examined for luciferase activity. […] All experiments were independently repeated three times, while a full-length Smad6 plasmid was used as a control.

The subject of test [1] is TGF-β1 signaling (Smad binding element). Description: SBE-Luc reporter luciferase assay in CMT-93 cells. Format: cell-based. The following applies: TGF-β1 5 ng/ml 2 hrs.
Excerpt: FIG. 2A is a graph showing results of the luciferase assay conducted with CMT-93 cells after transfection with SBE-Luc reporter plasmid plus an empty vector, a plasmid carrying Myc-Smad6 (400-441), or a plasmid carrying full-length Smad6,
FIG. 3D is a graph showing TGF-β-induced luciferase activity in CMT-93 cells transformed with an SBE-Luc reporter plasmid plus an empty vector or a Myc-Smad6 (422-441) plasmid, and
as §1

The next test relates to IκBα. As to the kind of experiment: Immunoblot of LPS-induced IκBα degradation in stably transformed CMT-93 cells. The following applies: CMT-93 cells stably expressing the region. Format: cell-based. The source says: To confirm the specific inhibitory activity of the Smad6 β-sheet small region against NF-κB signaling, the epithelial cell line CMT-93, which is susceptible to both TGF-β1 and LPS, was transformed to stably express the Smad6 β-sheet region.
On the technique in general: In western blotting, separated proteins are transferred to a membrane and probed.

In a further test the target is T2, Pellino-1 (Homo sapiens, UniProt Q96FA3).
T2 construct: plus an HA-tagged full length Pellino-1 plasmid; expressed in transfected cells; host or cells: HEK293
T2 sequence (Q96FA3 1-418): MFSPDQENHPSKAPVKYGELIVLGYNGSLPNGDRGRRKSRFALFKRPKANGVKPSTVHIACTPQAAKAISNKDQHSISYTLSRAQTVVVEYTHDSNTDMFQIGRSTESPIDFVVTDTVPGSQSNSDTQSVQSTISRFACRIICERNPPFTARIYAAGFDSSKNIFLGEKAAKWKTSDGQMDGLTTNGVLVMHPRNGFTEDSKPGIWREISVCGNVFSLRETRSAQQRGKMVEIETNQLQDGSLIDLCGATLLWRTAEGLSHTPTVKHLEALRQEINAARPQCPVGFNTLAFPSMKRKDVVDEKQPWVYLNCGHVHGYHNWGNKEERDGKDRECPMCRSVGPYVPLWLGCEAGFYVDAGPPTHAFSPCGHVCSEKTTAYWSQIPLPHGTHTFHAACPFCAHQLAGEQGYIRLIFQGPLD
As to the kind of experiment: Co-immunoprecipitation of Smad6 truncated mutants with HA-tagged full length Pellino-1 in HEK293 cells. It is filed as binding. The protocol:
(§2) A co-immunoprecipitation assay was carried out as follows. For use as antibodies in co-immunoprecipitation, mouse anti-HA (F-7), mouse anti-c-Myc (9E10), rabbit anti-IκBα (C-21), mouse anti-IRAK1 (F-4), and mouse anti-TRAF6 (D-10) were purchased from Santa Cruz Biotechnology (USA), the antibodies rabbit anti-Pellino-1 and rabbit anti-IRAK4 from Imgenex, the antibodies rabbit anti-Smad6, rabbit anti-MyD88 (D80F5), rabbit anti-IKKα, rabbit anti-phospho-IKKα/β, rabbit anti-RIP1 (D94C12), rabbit anti-IKKi (anti-IKKE; D61F9), rabbit anti-TBK1 (D1B4), rabbit anti-GRK2 from Cell Signaling, and the antibody anti-β-actin from Sigma. Cells were lysed in a lysis buffer (PBS containing 0.5% Triton X-100, 20 mM HEPES (pH 7.4), 150 mM NaCl, 12.5 mM β-glycerol phosphate, 1.5 mM MgCl2, 10 mM NaF, 2 mM DTT, 1 mM Na3O4V, 2 mM EGTA, 1 mM PMSF and protease inhibitor mixture), and harvested by centrifuging 13,000 rpm for 10 min. For immunoprecipitation, the cell lysate were incubated at 4° C. for 12 hrs with protein-A agarose beads and the above-mentioned antibodies. Afterwards, the beads were washed three times with a lysis buffer, and treated with a 2× sample buffer to separate the co-immunoprecipitates therefrom. The co-immunoprecipitates were boiled, followed by SDS-PAGE. […]

A further test relates to IRAK1, TRAF6, MyD88. As to the kind of experiment: Co-immunoprecipitation of Smad6 (422-441) with other TLR4 signaling proteins in HEK293 cells. Format: binding. Conditions: Flag-IRAK1, Flag-TRAF6, Flag-MyD88. Here is the method: as §2

Where no end group is shown, it is not given here.

For the molecule “Myc-Smad6 400-441: plasmid-expressed Myc-tagged peptide region from amino acid 400 to 441 of the Smad6 MH2 domain (VWAYNRGEHPIFVNSPTLDAPGGRALVVRKVPPGYSIKVFDF; also: Myc tag, plasmid-expressed; UniProt O43541 400-441, looked up, fragment)”, the “interaction with the Pellino-1N domain” value with Pellino-1N domain was “interact”. The NF-κB-mediated reporter activity entry in the test on NF-κB is “selectively suppressed”. The TGF-β1-mediated reporter activity entry in test [1] is recorded as “did not suppress”. Besides, in the test with IκBα, the “LPS-induced IκBα degradation detected” value is recorded as “not”.
With “Myc-Smad6 422-441: plasmid-expressed Myc-tagged minimum region, amino acid 422 to 441 of Smad6 (GGRALVVRKVPPGYSIKVFD; also: Myc tag, plasmid-expressed)”, the “binding to Pellino-1” value in the test with Pellino-1 is “sufficient and minimally required”. In addition, in the test on IRAK1, TRAF6, MyD88, the “binding to other proteins involved in the TLR4 signaling pathway” value is “not to other proteins involved in the TLR4 signaling pathway”. Also, in the test on NF-κB, the NF-κB-mediated reporter activity result was “specifically suppressing”. Further, the TGF-β1-mediated reporter activity result in test [1] is reported as “did not suppressed”.

B1: full-length Smad6: full-length Smad6 plasmid used as a control (protein, UniProt O43541 1-496, looked up)
chain: MFRSKRSGLVRRLWRSRVVPDREEGGSGGGGGGDEDGSLGSRAEPAPRAREGGGCGRSEVRPVAPRRPRDAVGQRGAQGAGRRRRAGGPPRPMSEPGAGAGSSLLDVAEPGGPGWLPESDCETVTCCLFSERDAAGAPRDASDPLAGAALEPAGGGRSREARSRLLLLEQELKTVTYSLLKRLKERSLDTLLEAVESRGGVPGGCVLVPRADLRLGGQPAPPQLLLGRLFRWPDLQHAVELKPLCGCHSFAAAADGPTVCCNPYHFSRLCGPESPPPPYSRLSPRDEYKPLDLSDSTLSYTETEATNSLITAPGEFSDASMSPDATKPSHWCSVAYWEHRTRVGRLYAVYDQAVSIFYDLPQGSGFCLGQLNLEQRSESVRRTRSKIGFGILLSKEPDGVWAYNRGEHPIFVNSPTLDAPGGRALVVRKVPPGYSIKVFDFERSGLQHAPEPDAADGPYDPNSVRISFAKGWGPCYSRQFITSCPCWLEILLNNPR
modifications: full-length
notes: full-length Smad6 plasmid used as a control
In the case of B1, in the test with NF-κB, the NF-κB-mediated reporter activity result is on record as “suppressed”. Moreover, the TGF-β1-mediated reporter activity result in test [1] is recorded as “suppressed”.
